Laboratory results: US20260166162A1, “CARBON CHAIN SUBSTANCE FOR REGULATING TRANSMEMBRANE TRANSPORT AND FLUIDITY OF CELL MEMBRANES, AND PREPARATION AND USE THEREOF” (priority 2022, published 2026)

Columns and labels:
293T cells = assay: Cellular phagocytosis of DiD-loaded lipid vesicles (nano-drugs) by 293T cells (Example II-51, Table II-29); type: cell-based; conditions: 293T cells pretreated 4 h, DiD lipid vesicles 2 h, n=3, untreated control 226.46 ± 1.26
Hela cells = assay: Cell membrane fluidity (Laurdan fluorescence recovery) in Hela cells; type: cell-based

With `CCCCCCCCCCCCCCCCCCCCCCCC(=O)OC(C)C(N)C(=O)O` (centres unmarked) [Threonine-C24] the Fluorescence intensity (293T cells; 2 nM) was 39.09 ± 7.89, the Fluorescence intensity (293T cells; 5 nM) was 38.29 ± 5.26 and the Fluorescence intensity (293T cells; 10 nM) was 22.90 ± 1.22. The Fluorescence intensity (293T cells; 50 nM) was 12.84 ± 2.22, the Fluorescence intensity (293T cells; 100 nM) was 14.81 ± 1.33 and the Fluorescence intensity (293T cells; 1 uM) was 435.55 ± 15.26. The Fluorescence intensity (293T cells; 10 uM) was 416.78 ± 12.33, the Fluorescence intensity (293T cells; 50 uM) was 46.51 ± 5.21 and the Fluorescence intensity (293T cells; 100 uM) was 30.64 ± 5.55.
`CCC=CCC=CCC=CCCCCCCCC(=O)OCC1OC(O)C(O)C(O)C1O` (centres unmarked) [Glucose-linolenic acid] was tested, and the “Fluorescence recovery rate %” value (Hela cells; 2 nM, 20 s) was 63.78%, the “Fluorescence recovery rate %” value (Hela cells; 2 nM, 40 s) was 64.18% and the “Fluorescence recovery rate %” value (Hela cells; 2 nM, 60 s) was 65.22%. The “Fluorescence recovery rate %” value (Hela cells; 2 nM, 80 s) was 65.16%, the “Fluorescence recovery rate %” value (Hela cells; 5 nM, 20 s) was 64.35% and the “Fluorescence recovery rate %” value (Hela cells; 5 nM, 40 s) was 64.83%. For the same compound, the “Fluorescence recovery rate %” value (Hela cells; 5 nM, 60 s) was 65.17%, the “Fluorescence recovery rate %” value (Hela cells; 5 nM, 80 s) was 66.59% and the “Fluorescence recovery rate %” value (Hela cells; 10 nM, 20 s) was 64.76%. The “Fluorescence recovery rate %” value (Hela cells; 10 nM, 40 s) was 64.87%, the “Fluorescence recovery rate %” value (Hela cells; 10 nM, 60 s) was 65.11% and the “Fluorescence recovery rate %” value (Hela cells; 10 nM, 80 s) was 66.83%. For the same compound, the “Fluorescence recovery rate %” value (Hela cells; 50 nM, 20 s) was 63.24%, the “Fluorescence recovery rate %” value (Hela cells; 50 nM, 40 s) was 64.10% and the “Fluorescence recovery rate %” value (Hela cells; 50 nM, 60 s) was 64.54%. For the same compound, the “Fluorescence recovery rate %” value (Hela cells; 50 nM, 80 s) was 65.23%, the “Fluorescence recovery rate %” value (Hela cells; 50 μM, 20 s) was 63.11% and the “Fluorescence recovery rate %” value (Hela cells; 50 μM, 40 s) was 70.49%. For the same compound, the “Fluorescence recovery rate %” value (Hela cells; 50 μM, 60 s) was 74.88%, the “Fluorescence recovery rate %” value (Hela cells; 50 μM, 80 s) was 79.24% and the “Fluorescence recovery rate %” value (Hela cells; 100 μM, 20 s) was 65.93%. The “Fluorescence recovery rate %” value (Hela cells; 100 μM, 40 s) was 69.87%, the “Fluorescence recovery rate %” value (Hela cells; 100 μM, 60 s) was 75.03% and the “Fluorescence recovery rate %” value (Hela cells; 100 μM, 80 s) was 80.83%.
With `CCCCCCCCCCCCCCCC(=O)OCC1OC(O)C(O)C(O)C1O` (centres unmarked) [Glucose-C16] the Fluorescence intensity (293T cells; 2 nM) was 134.65 ± 15.22, the Fluorescence intensity (293T cells; 5 nM) was 114.00 ± 11.02 and the Fluorescence intensity (293T cells; 10 nM) was 94.34 ± 4.57. For the same compound, the Fluorescence intensity (293T cells; 50 nM) was 96.63 ± 6.54, the Fluorescence intensity (293T cells; 100 nM) was 172.88 ± 26.33 and the Fluorescence intensity (293T cells; 1 uM) was 198.54 ± 8.55. It also gave a Fluorescence intensity (293T cells; 10 uM) of 170.16 ± 20.33, a Fluorescence intensity (293T cells; 50 uM) of 110.15 ± 10.22 and a Fluorescence intensity (293T cells; 100 uM) of 104.90 ± 4.91.
Work on `C/C=C/C(=O)O` [Crotonic acid] yielded a Fluorescence intensity (293T cells; 2 nM) of 157.30 ± 20.43, a Fluorescence intensity (293T cells; 5 nM) of 159.29 ± 0.43 and a Fluorescence intensity (293T cells; 10 nM) of 94.34 ± 0.43. The Fluorescence intensity (293T cells; 50 nM) was 51.34 ± 0.43, the Fluorescence intensity (293T cells; 100 nM) was 59.65 ± 1.57 and the Fluorescence intensity (293T cells; 1 uM) was 458.20 ± 20.41. For the same compound, the Fluorescence intensity (293T cells; 10 uM) was 326.69 ± 20.40, the Fluorescence intensity (293T cells; 50 uM) was 200.73 ± 10.31 and the Fluorescence intensity (293T cells; 100 uM) was 218.13 ± 8.22.
`CCCCCCCCCCCC(=O)NCCCCC(N)C(=O)O` (centres unmarked) [Lys-C12] showed a Fluorescence intensity (293T cells; 2 nM) of 175.30 ± 15.23, a Fluorescence intensity (293T cells; 5 nM) of 103.11 ± 10.33 and a Fluorescence intensity (293T cells; 10 nM) of 49.05 ± 5.26. The Fluorescence intensity (293T cells; 50 nM) was 24.16 ± 3.36, the Fluorescence intensity (293T cells; 100 nM) was 25.45 ± 5.22 and the Fluorescence intensity (293T cells; 1 uM) was 367.61 ± 27.11. It also gave a Fluorescence intensity (293T cells; 10 uM) of 417.28 ± 17.23, a Fluorescence intensity (293T cells; 50 uM) of 110.76 ± 8.54 and a Fluorescence intensity (293T cells; 100 uM) of 104.90 ± 6.23.
Compound `CCCCCC(=O)O` [Hexanoic acid] has a Fluorescence intensity (293T cells; 2 nM) of 131.26 ± 11.25, a Fluorescence intensity (293T cells; 5 nM) of 114.00 ± 14.2 and a Fluorescence intensity (293T cells; 10 nM) of 94.34 ± 4.25. For the same compound, the Fluorescence intensity (293T cells; 50 nM) was 96.63 ± 6.32, the Fluorescence intensity (293T cells; 100 nM) was 30.71 ± 1.25 and the Fluorescence intensity (293T cells; 1 uM) was 102.07 ± 12.2. It also gave a Fluorescence intensity (293T cells; 10 uM) of 125.10 ± 12.55, a Fluorescence intensity (293T cells; 50 uM) of 288.42 ± 8.32 and a Fluorescence intensity (293T cells; 100 uM) of 325.58 ± 15.26.
With `CCCCCCCC/C=C\CCCCCCCC(=O)OCCOCC(OCCO)C1OCC(OCCO)C1OCCO` (centres unmarked) [Tween-80] the Fluorescence intensity (293T cells; 2 nM) was 45.04, the Fluorescence intensity (293T cells; 5 nM) was 32.41 and the Fluorescence intensity (293T cells; 10 nM) was 21.85. It also gave a Fluorescence intensity (293T cells; 50 nM) of 17.28, a Fluorescence intensity (293T cells; 100 nM) of 11.89 and a Fluorescence intensity (293T cells; 1 uM) of 152.11. The Fluorescence intensity (293T cells; 10 uM) was 103.58, the Fluorescence intensity (293T cells; 50 uM) was 18.48 and the Fluorescence intensity (293T cells; 100 uM) was 13.34 ± 3.24.
For adenosine monophosphate-linoleic acid, the “Fluorescence recovery rate %” value (Hela cells; 2 nM, 20 s) was 62.11%, the “Fluorescence recovery rate %” value (Hela cells; 2 nM, 40 s) was 62.98% and the “Fluorescence recovery rate %” value (Hela cells; 2 nM, 60 s) was 64.26%. For the same compound, the “Fluorescence recovery rate %” value (Hela cells; 2 nM, 80 s) was 68.17%, the “Fluorescence recovery rate %” value (Hela cells; 5 nM, 20 s) was 63.44% and the “Fluorescence recovery rate %” value (Hela cells; 5 nM, 40 s) was 64.22%. For the same compound, the “Fluorescence recovery rate %” value (Hela cells; 5 nM, 60 s) was 65.78%, the “Fluorescence recovery rate %” value (Hela cells; 5 nM, 80 s) was 66.39% and the “Fluorescence recovery rate %” value (Hela cells; 10 nM, 20 s) was 63.22%. For the same compound, the “Fluorescence recovery rate %” value (Hela cells; 10 nM, 40 s) was 63.48%, the “Fluorescence recovery rate %” value (Hela cells; 10 nM, 60 s) was 64.42% and the “Fluorescence recovery rate %” value (Hela cells; 10 nM, 80 s) was 65.93%. For the same compound, the “Fluorescence recovery rate %” value (Hela cells; 50 nM, 20 s) was 64.25%, the “Fluorescence recovery rate %” value (Hela cells; 50 nM, 40 s) was 64.66% and the “Fluorescence recovery rate %” value (Hela cells; 50 nM, 60 s) was 65.33%. For the same compound, the “Fluorescence recovery rate %” value (Hela cells; 50 nM, 80 s) was 66.23%, the “Fluorescence recovery rate %” value (Hela cells; 50 μM, 20 s) was 64.44% and the “Fluorescence recovery rate %” value (Hela cells; 50 μM, 40 s) was 70.73%. The “Fluorescence recovery rate %” value (Hela cells; 50 μM, 60 s) was 74.64%, the “Fluorescence recovery rate %” value (Hela cells; 50 μM, 80 s) was 80.57% and the “Fluorescence recovery rate %” value (Hela cells; 100 μM, 20 s) was 63.22%. The “Fluorescence recovery rate %” value (Hela cells; 100 μM, 40 s) was 67.48%, the “Fluorescence recovery rate %” value (Hela cells; 100 μM, 60 s) was 75.42% and the “Fluorescence recovery rate %” value (Hela cells; 100 μM, 80 s) was 79.93%.
`CCCCCCCC/C=C\CCCCCCCC(=O)O.OCCO` [Ethylene glycol-oleic acid] was tested, and the Fluorescence intensity (293T cells; 2 nM) was 182.21 ± 18.23, the Fluorescence intensity (293T cells; 5 nM) was 121.07 ± 11.26 and the Fluorescence intensity (293T cells; 10 nM) was 69.12 ± 4.26. The Fluorescence intensity (293T cells; 50 nM) was 64.90 ± 1.56, the Fluorescence intensity (293T cells; 100 nM) was 44.23 ± 4.26 and the Fluorescence intensity (293T cells; 1 uM) was 368.97 ± 18.56. The Fluorescence intensity (293T cells; 50 uM) was 69.34 ± 5.32 and the Fluorescence intensity (293T cells; 100 uM) was 58.72 ± 8.75.
`CCCCCC/C=C\CCCCCCCC(=O)OC(C)C(N)C(=O)O` (stereo not drawn) [Threonine-cis-9-hexadecanoic acid] gave a Fluorescence intensity (293T cells; 2 nM) of 142.94, a Fluorescence intensity (293T cells; 5 nM) of 67.71 ± 5.67 and a Fluorescence intensity (293T cells; 10 nM) of 64.00 ± 4.06. For the same compound, the Fluorescence intensity (293T cells; 50 nM) was 74.71 ± 5.36, the Fluorescence intensity (293T cells; 100 nM) was 56.71 ± 6.74 and the Fluorescence intensity (293T cells; 1 uM) was 153.25 ± 13.25. For the same compound, the Fluorescence intensity (293T cells; 10 uM) was 126.64 ± 11.02, the Fluorescence intensity (293T cells; 50 uM) was 37.23 ± 2.35 and the Fluorescence intensity (293T cells; 100 uM) was 61.12 ± 5.21.
For `CCCCCCCCC=CCCCCCCCC(=O)OCC(O)C1OC(=O)C(O)=C1O` (centres unmarked) [Vc-oleic acid], the “Fluorescence recovery rate %” value (Hela cells; 2 nM, 20 s) was 61.48%, the “Fluorescence recovery rate %” value (Hela cells; 2 nM, 40 s) was 62.33% and the “Fluorescence recovery rate %” value (Hela cells; 2 nM, 60 s) was 63.41%. For the same compound, the “Fluorescence recovery rate %” value (Hela cells; 2 nM, 80 s) was 64.57%, the “Fluorescence recovery rate %” value (Hela cells; 5 nM, 20 s) was 61.87% and the “Fluorescence recovery rate %” value (Hela cells; 5 nM, 40 s) was 62.99%. For the same compound, the “Fluorescence recovery rate %” value (Hela cells; 5 nM, 60 s) was 63.47%, the “Fluorescence recovery rate %” value (Hela cells; 5 nM, 80 s) was 63.21% and the “Fluorescence recovery rate %” value (Hela cells; 10 nM, 20 s) was 63.72%. The “Fluorescence recovery rate %” value (Hela cells; 10 nM, 40 s) was 63.75%, the “Fluorescence recovery rate %” value (Hela cells; 10 nM, 60 s) was 64.67% and the “Fluorescence recovery rate %” value (Hela cells; 10 nM, 80 s) was 65.92%. For the same compound, the “Fluorescence recovery rate %” value (Hela cells; 50 nM, 20 s) was 62.43%, the “Fluorescence recovery rate %” value (Hela cells; 50 nM, 40 s) was 62.62% and the “Fluorescence recovery rate %” value (Hela cells; 50 nM, 60 s) was 63.37%. For the same compound, the “Fluorescence recovery rate %” value (Hela cells; 50 nM, 80 s) was 64.24%, the “Fluorescence recovery rate %” value (Hela cells; 50 μM, 20 s) was 62.54% and the “Fluorescence recovery rate %” value (Hela cells; 50 μM, 40 s) was 67.11%. For the same compound, the “Fluorescence recovery rate %” value (Hela cells; 50 μM, 60 s) was 74.55%, the “Fluorescence recovery rate %” value (Hela cells; 50 μM, 80 s) was 76.57% and the “Fluorescence recovery rate %” value (Hela cells; 100 μM, 20 s) was 61.66%. For the same compound, the “Fluorescence recovery rate %” value (Hela cells; 100 μM, 40 s) was 73.65%, the “Fluorescence recovery rate %” value (Hela cells; 100 μM, 60 s) was 77.32% and the “Fluorescence recovery rate %” value (Hela cells; 100 μM, 80 s) was 78.61%.
With `O=C(O)CCCCCCCCCC(=O)OCC(O)C1OC(=O)C(O)=C1O` (centres unmarked) [VC-undecanedioic acid] the Fluorescence intensity (293T cells; 2 nM) was 121.02, the Fluorescence intensity (293T cells; 5 nM) was 92.26 and the Fluorescence intensity (293T cells; 10 nM) was 78.76 ± 7.89. For the same compound, the Fluorescence intensity (293T cells; 50 nM) was 87.57 ± 5.57, the Fluorescence intensity (293T cells; 100 nM) was 96.31 ± 6.21 and the Fluorescence intensity (293T cells; 1 uM) was 199.22 ± 19.26. The Fluorescence intensity (293T cells; 10 uM) was 217.49 ± 14.22, the Fluorescence intensity (293T cells; 50 uM) was 106.96 ± 5.64 and the Fluorescence intensity (293T cells; 100 uM) was 110.44 ± 9.87.
